We go through 18 compounds from ChEMBL document CHEMBL4004889, “Discovery of selective ATP-competitive eIF4A3 inhibitors” (Bioorg Med Chem, 2017).

Assay [1] deals with T1, Eukaryotic initiation factor 4A-III (Homo sapiens, UniProt P38919). Nature of the assay: Inhibition of MLN51-induced full length recombinant human N-terminal His6/SUMO-tagged eIF4A3 RNA dependent ATPase activity expressed in Escherichia coli BL21(DE3) using 60 ug/ml single stranded poly(U) RNA as substrate after 30 mins by ADP-Glo luminescence assay.
Assay [2] addresses Eukaryotic initiation factor 4A-II (Homo sapiens, UniProt Q14240). Put plainly: Inhibition of eIF4G-induced eIF4A2 (unknown origin) RNA dependent ATPase activity expressed in Escherichia coli BL21(DE3) using single stranded poly(U) RNA as substrate after 40 mins by ADP-Glo luminescence assay. In general terms: In ADP-Glo the light output rises with the ADP produced.
The target in assay [3] is U5 small nuclear ribonucleoprotein 200 kDa helicase (Homo sapiens, UniProt O75643). Put plainly: Inhibition of full length recombinant human N-terminal His-tagged BRR2 RNA dependent ATPase activity expressed in baculovirus infected Sf9 insect cells using single stranded poly(U) RNA as substrate after 30 mins by ADP-Glo luminescence assay.
The target in assay [4] is T1, Eukaryotic initiation factor 4A-III. Nature of the assay: Binding affinity to full length recombinant human N-terminal His6/SUMO-tagged eIF4A3 expressed in Escherichia coli BL21(DE3) administered for 60 to 120 secs by surface plasmon resonance biosensing assay. On the technique in general: SPR reads the build-up and loss of mass on a sensor chip optically.
For assay [5] the target is unchanged.
Description: Binding affinity to full length recombinant human N-terminal His6/SUMO-tagged eIF4A3 expressed in Escherichia coli BL21(DE3) assessed as dissociation half-life administered for 60 to 120 secs by surface plasmon resonance biosensing assay
The target of assay [6] is Eukaryotic initiation factor 4A-I (Homo sapiens, UniProt P60842). Put plainly: Inhibition of eIF4G-induced full length recombinant human N-terminal His6/SUMO-tagged eIF4A1 RNA dependent ATPase activity expressed in Escherichia coli BL21(DE3) using single stranded poly(U) RNA as substrate after 40 mins by ADP-Glo luminescence assay.
Assay [7] concerns the target T2, ATP-dependent RNA helicase DHX29 (Homo sapiens, UniProt Q7Z478).
T2 sequence (Q7Z478 whole entry): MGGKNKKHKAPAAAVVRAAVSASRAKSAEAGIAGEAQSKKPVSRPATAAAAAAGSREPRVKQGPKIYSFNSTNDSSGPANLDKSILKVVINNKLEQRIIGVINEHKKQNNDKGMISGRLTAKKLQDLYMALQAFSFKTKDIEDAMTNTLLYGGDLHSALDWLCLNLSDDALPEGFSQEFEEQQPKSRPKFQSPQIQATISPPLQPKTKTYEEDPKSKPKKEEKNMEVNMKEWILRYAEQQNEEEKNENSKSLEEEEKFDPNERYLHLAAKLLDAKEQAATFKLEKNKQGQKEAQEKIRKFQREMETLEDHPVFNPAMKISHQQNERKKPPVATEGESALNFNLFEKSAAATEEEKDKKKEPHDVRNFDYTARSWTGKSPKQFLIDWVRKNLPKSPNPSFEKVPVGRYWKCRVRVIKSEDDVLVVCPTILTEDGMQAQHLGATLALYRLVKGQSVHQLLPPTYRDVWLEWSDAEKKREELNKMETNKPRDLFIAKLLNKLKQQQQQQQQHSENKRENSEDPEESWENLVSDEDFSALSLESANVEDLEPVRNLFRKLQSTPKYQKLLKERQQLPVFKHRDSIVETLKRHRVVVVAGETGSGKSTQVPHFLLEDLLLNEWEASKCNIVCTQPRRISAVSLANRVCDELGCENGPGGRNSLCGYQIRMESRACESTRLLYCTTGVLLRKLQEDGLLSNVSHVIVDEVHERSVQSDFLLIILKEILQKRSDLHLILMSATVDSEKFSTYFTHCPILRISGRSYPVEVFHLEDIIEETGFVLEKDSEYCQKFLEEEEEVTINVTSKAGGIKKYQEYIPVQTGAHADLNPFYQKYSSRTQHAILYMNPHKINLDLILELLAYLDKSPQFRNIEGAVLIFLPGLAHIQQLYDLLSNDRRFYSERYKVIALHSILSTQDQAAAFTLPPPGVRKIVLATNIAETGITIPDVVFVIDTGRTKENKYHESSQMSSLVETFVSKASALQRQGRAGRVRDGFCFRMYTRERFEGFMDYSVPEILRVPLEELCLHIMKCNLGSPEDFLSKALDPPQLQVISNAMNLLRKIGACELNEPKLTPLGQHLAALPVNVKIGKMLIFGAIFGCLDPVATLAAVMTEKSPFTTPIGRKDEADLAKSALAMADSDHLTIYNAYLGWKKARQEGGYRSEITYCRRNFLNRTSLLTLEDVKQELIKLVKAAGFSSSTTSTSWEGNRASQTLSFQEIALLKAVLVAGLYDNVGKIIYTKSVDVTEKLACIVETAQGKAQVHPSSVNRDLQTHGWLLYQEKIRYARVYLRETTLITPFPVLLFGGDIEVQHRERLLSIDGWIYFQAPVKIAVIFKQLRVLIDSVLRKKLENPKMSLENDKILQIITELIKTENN
Put plainly: Inhibition of full length recombinant human N-terminal FLAG-His-tagged DHX29 RNA dependent ATPase activity expressed in baculovirus infected Sf9 insect cells using single stranded poly(U) RNA as substrate after 30 mins by ADP-Glo luminescence assay.

In assay [8] the target is T1, Eukaryotic initiation factor 4A-III. Nature of the assay: Inhibition of MLN51-induced full length recombinant human N-terminal His6/SUMO-tagged eIF4A3 expressed in Escherichia coli BL21(DE3) using 1.5 ug/ml single stranded poly(U) RNA after 45 mins by ADP-Glo luminescence assay.
Assay [9] has the same target. Nature of the assay: ATP competitive inhibition of MLN51-induced full length recombinant human N-terminal His6/SUMO-tagged eIF4A3 expressed in Escherichia coli BL21(DE3) using varying ATP levels after 30 mins by ADP-Glo luminescence assay.
Assay [10] shares this target. This is another data set of the same source.
Description: Binding affinity to full length recombinant human N-terminal His6/SUMO-tagged eIF4A3 expressed in Escherichia coli BL21(DE3) assessed as change in enthalpy by isothermal titration calorimetric method
Assay [11] has the same target. The source holds these as a separate data set.
Description: Binding affinity to full length recombinant human N-terminal His6/SUMO-tagged eIF4A3 expressed in Escherichia coli BL21(DE3) assessed as change in entropy by isothermal titration calorimetric method
For assay [12] the target is unchanged. Put plainly: Binding affinity to full length recombinant human N-terminal His6/SUMO-tagged eIF4A3 expressed in Escherichia coli BL21(DE3) by isothermal titration calorimetric method. On the technique in general: In ITC the heat of successive injections is recorded.
For assay [13] the target is unchanged. This is another data set of the same source.
Description: Binding affinity to full length recombinant human N-terminal His6/SUMO-tagged eIF4A3 expressed in Escherichia coli BL21(DE3) assessed as change in Gibbs free energy by isothermal titration calorimetric method

Sequence of Eukaryotic initiation factor 4A-I (P60842 whole entry): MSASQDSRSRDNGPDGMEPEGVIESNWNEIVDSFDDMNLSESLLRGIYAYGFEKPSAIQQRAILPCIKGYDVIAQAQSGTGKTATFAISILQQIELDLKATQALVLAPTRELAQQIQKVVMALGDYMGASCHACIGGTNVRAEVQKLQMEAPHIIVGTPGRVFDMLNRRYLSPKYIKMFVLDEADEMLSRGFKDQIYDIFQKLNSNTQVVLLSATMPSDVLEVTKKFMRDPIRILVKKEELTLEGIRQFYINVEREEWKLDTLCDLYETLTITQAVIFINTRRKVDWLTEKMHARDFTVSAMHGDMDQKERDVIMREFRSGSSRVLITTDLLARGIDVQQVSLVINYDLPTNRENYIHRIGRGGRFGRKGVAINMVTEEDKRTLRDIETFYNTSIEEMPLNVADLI
T1 sequence (P38919 whole entry): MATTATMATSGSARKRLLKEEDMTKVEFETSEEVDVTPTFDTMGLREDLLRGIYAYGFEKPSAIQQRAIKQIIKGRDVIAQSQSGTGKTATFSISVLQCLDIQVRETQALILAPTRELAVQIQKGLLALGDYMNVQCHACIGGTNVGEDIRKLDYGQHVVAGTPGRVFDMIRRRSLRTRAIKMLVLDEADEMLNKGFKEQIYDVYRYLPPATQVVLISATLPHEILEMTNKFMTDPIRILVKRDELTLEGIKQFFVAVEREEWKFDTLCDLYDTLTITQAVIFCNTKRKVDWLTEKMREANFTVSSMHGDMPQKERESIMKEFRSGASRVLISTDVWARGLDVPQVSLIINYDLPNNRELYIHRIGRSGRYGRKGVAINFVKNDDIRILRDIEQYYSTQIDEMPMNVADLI
Sequence of U5 small nuclear ribonucleoprotein 200 kDa helicase (O75643 whole entry): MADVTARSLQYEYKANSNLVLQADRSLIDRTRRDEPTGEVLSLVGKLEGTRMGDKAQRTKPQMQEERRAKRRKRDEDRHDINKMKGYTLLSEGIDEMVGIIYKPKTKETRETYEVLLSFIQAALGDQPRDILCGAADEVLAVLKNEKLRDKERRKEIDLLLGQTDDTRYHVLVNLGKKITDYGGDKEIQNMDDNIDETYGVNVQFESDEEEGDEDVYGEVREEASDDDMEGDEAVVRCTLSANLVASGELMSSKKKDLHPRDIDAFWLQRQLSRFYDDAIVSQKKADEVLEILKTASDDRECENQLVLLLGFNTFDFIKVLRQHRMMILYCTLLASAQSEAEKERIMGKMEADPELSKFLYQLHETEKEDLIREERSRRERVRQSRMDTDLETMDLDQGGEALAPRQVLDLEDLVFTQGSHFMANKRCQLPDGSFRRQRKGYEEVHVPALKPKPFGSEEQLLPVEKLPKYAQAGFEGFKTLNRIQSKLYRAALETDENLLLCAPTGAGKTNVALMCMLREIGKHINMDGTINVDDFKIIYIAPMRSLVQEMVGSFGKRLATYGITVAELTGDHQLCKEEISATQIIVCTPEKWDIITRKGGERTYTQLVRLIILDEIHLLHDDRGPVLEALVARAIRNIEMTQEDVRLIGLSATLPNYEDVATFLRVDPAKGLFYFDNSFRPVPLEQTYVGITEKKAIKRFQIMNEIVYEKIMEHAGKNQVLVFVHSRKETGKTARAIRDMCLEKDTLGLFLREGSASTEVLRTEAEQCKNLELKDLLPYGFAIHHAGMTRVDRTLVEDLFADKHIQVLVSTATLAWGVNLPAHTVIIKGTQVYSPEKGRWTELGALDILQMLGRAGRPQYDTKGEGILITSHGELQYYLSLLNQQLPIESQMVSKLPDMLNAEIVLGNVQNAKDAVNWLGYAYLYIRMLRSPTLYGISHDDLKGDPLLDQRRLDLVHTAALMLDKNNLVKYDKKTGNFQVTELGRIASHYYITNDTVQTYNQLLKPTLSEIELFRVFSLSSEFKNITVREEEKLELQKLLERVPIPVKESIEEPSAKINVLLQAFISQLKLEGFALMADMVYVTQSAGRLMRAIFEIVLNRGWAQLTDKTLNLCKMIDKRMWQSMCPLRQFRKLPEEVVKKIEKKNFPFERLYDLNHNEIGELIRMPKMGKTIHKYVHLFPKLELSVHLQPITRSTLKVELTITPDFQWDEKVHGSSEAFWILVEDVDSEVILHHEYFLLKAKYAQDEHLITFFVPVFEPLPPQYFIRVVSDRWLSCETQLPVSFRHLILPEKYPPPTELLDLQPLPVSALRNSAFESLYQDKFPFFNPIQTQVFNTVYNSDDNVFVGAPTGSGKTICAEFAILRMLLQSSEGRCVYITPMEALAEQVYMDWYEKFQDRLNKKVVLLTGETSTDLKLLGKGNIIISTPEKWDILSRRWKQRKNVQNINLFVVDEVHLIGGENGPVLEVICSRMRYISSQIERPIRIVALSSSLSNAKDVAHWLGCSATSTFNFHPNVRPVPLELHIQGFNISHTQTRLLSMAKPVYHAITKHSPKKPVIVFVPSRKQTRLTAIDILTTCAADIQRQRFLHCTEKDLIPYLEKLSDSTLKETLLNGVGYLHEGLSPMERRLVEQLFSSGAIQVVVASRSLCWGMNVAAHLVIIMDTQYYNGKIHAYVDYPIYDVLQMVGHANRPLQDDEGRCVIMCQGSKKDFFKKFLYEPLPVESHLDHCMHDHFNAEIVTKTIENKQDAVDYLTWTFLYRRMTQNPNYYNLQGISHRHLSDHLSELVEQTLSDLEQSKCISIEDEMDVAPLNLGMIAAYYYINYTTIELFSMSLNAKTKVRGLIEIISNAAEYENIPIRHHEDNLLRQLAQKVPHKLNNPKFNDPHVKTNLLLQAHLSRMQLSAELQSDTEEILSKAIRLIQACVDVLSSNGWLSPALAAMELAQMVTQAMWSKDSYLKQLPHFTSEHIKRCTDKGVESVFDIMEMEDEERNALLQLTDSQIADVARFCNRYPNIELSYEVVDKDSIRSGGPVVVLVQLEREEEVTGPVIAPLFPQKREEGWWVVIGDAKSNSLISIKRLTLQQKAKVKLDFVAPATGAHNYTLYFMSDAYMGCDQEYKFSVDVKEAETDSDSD
Sequence of Eukaryotic initiation factor 4A-II (Q14240 whole entry): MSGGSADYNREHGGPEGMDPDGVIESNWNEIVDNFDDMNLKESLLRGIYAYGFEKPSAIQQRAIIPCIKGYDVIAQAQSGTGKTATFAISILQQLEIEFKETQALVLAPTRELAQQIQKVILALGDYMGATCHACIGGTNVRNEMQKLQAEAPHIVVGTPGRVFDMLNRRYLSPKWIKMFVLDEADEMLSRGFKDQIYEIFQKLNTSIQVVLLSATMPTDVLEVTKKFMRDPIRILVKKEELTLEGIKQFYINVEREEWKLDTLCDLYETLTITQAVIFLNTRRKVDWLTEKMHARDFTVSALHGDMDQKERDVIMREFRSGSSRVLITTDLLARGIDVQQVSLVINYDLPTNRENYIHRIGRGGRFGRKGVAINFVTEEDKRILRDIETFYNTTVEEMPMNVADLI

The IC50 is the concentration that inhibits the measured activity by half. Turning to `Cc1ccc2cc(C(=O)O)[nH]c2c1`, in [1], the IC50 is greater than 100 µM.

As to `COC(=O)c1cc2ccc(C(C)C)cc2[nH]1`, the IC50 in assay [1] is greater than 100 µM.

With `CC(C)c1cc2[nH]c(C(=O)O)cc2cc1F`, the IC50 in assay [1] came out at 30 µM.

`CC(C)c1ccc2cc(C(N)=O)[nH]c2c1`: the IC50 in [1] was greater than 100 µM.

As usually defined, the Kd is the free concentration of one partner at which half of the binding sites on the other are occupied at equilibrium, for simple one-to-one binding. Regarding `C[C@H]1C[C@@]2(O[C@H]3C[C@H]4[C@@H]5CC[C@H]6C[C@H](O)CC[C@]6(C)[C@H]5[C@@H](O)C[C@]4(C)[C@H]3[C@@]2(C)O)OC1(C)C` [HIPPURISTANOL], the IC50 is 18 µM in [2]; greater than 30 µM in [3]; 3.1 µM in assay [6]; 40 µM in assay [1]; greater than 30 µM in assay [7]. The Kd in [4] was 50 µM. In assay [5], the T1/2 was determined as 12.2 s.

On to `CC(C)c1ccc2cc(C(=O)O)n(C)c2c1`, for which, in assay [1], the IC50 was greater than 100 µM.

Regarding `CC(C)c1ccc2[nH]c(C(=O)O)cc2c1`, in [1], the IC50 is greater than 100 µM.

For `CC(C)c1cc(F)c2cc(C(=O)O)[nH]c2c1`, the IC50 in [1] is 5 µM.

In the case of `CCc1ccc2cc(C(=O)O)[nH]c2c1`, the IC50 in assay [1] was greater than 100 µM.

In the case of `O=C(O)c1cc2ccc(Cl)cc2[nH]1`, the IC50 in assay [1] is greater than 100 µM.

As a reminder, the Ki is a dissociation constant, usually derived from enzyme kinetics or from competition with a known ligand. For `CC(C)c1cc(Cl)c2cc(C(=O)O)[nH]c2c1F`, the IC50 in [8] is 0.36 µM; in [2], greater than 100 µM; in assay [3] it was greater than 100 µM; in assay [6], greater than 100 µM; in assay [1], 0.97 µM; in assay [7], greater than 100 µM. In addition, the Ki in [9] was found to be 0.43 µM. The Kd in assay [4] amounted to 0.2 µM; in [12], 0.062 µM. This compound also returned a T1/2 in assay [5] of 8.9 s. The compound further yielded a deltaH in assay [10] of -26 kcal/mol. For the same compound, the -TdeltaS in [11] turned out to be 16.1 kcal/mol. In assay [13], this compound registered a deltaG of -9.9 kcal/mol.

For `CC(C)c1cc(Cl)c2cc(C(=O)O)[nH]c2c1`, the IC50 in assay [6] was greater than 100 µM; in assay [1], 1.9 µM.

Turning to `CC(C)c1ccc2cc(C(=O)O)[nH]c2c1`, in assay [4], the Kd stood at 5.4 µM. Besides, the IC50 in [1] is 27 µM.

For `CC(C)c1ccc2cc(C(=O)O)[nH]c2c1F`, the results for the IC50 in [6] and in assay [1] were greater than 100 µM and 6.9 µM, respectively.

On to `CC(C)c1ccc2cc(-c3nnn[nH]3)[nH]c2c1`, for which the IC50 in [1] is 30 µM.

In the case of `CC(C)c1ccc2cc(C(=O)O)[nH]c2c1Cl`, in [1], the IC50 is greater than 100 µM.

Regarding `CC(C)c1cccc2cc(C(=O)O)[nH]c12`, in assay [1], the IC50 is greater than 100 µM.

For the compound `CC(C)c1ccc2c(F)c(C(=O)O)[nH]c2c1`, the IC50 in assay [1] was 20 µM.
